Reference: US20240016775A1, “ANTI-CORONAVIRUS APPLICATION OF POLY ADP RIBOSE POLYMERASE INHIBITOR” (FUKANG (SHANGHAI) HEALTH TECHNOLOGY CO., LTD, priority 2020, published 2024)
Where a name gives a salt, the structure may show the parent alone. Read-outs that look alike come from different tables or passages of the source.

Tests used:
[1] = rats, oral 54 mg/kg, cited from earlier work
SARS-CoV-2 = assay: microbe, parasite or virus in culture; type: cell-based; conditions: Vero-E6, MOI 0.05, 48 h
[2] = some healthy subjects, 3 hours after taking the drug; cited from earlier work
[3] = cited from earlier work
[4] = rats, Male, cited from earlier work
[5] = Cytotoxicity test on Vero-E6 cells (CCK-8); type: cell-based; conditions: African green monkey, 48 h, read-out: CC50 (50% cytotoxic concentration)
Protocol: (§1) 2.1 Experimental Groups: • 1) Mefuparib hydrochloride (CVL218) group • 2) DMSO control group • 3) Olaparib group • 4) Cell control group: containing only cells, without adding drugs • 5) Blank control group (only medium without cells)
(§2) Mefuparib hydrochloride was obtained from Pukang (Shanghai) Health Technology Co., Ltd., with a purity of >99.0%. It was dissolved in DMSO and then diluted in gradients according to Table 4 below (the maintenance solution was DMEM medium). Serial dilutions were performed for DMSO according to the same dilution gradients.
(§3) Vero-E6 cells were seeded into 96-well culture plates at 1×10^4 cells/well, and cultured in DMEM containing 10% fetal bovine serum for 16 hours to become 80% pellets, then the cell culture medium was aspirated and discarded from each well, the cells were washed once with sterile PBS, and different drugs (200 μl/well) diluted in the cell maintenance solution were added to each well according to the experimental groups, with 3 duplicate wells set up for each group, and then the wells were placed in a 37° C., 5% CO2 incubator for 48 h.
(§4) For the DMSO control group, DMSO diluted with the cell maintenance solution to the corresponding concentration was added, and for the cell control group, 200 μl of the cell maintenance solution was added. For the blank control group, only cell maintenance solution without cells was added.
(§5) 2.3.2 Detection of toxicity of mefuparib hydrochloride and Olaparib on Vero-E6 The cell state was observed and recorded under an inverted microscope, and the toxicity of the drug to Vero-E6 cells was detected according to the operation instructions of the CCK-8 kit: 20 μl of CCK-8 solution was added to all experimental wells and control wells, and the cell culture plate was placed in a 37° C., 5% CO2 incubator for 1 hour, and then its absorbance value at the wavelength of 450 nm was measured using a multifunctional microplate reader.

Vero-E6 cells = assay: Cytotoxicity test on Vero-E6 cells (CCK-8); type: cell-based; conditions: 30 μM
Protocol: as §1, §2, §3, §4, §5

CCOC(=O)c1c(CSc2ccccc2)n(C)c2cc(Br)c(O)c(CN(C)C)c12 [Arbidol, arbidol]
Tissue concentration, Brain ([1]; 5 min): 101 ± 67
Tissue concentration, Heart ([1]; 5 min): 72 ± 47
Tissue concentration, Kidney ([1]; 5 min): 79 ± 54
Tissue concentration, Liver ([1]; 5 min): 104 ± 82
Tissue concentration, Spleen ([1]; 5 min): 48 ± 35
Tissue concentration, Stomach ([1]; 5 min): 8210 ± 5410
Tissue concentration, Brain ([1]; 15 min): 50 ± 10
Tissue concentration, Heart ([1]; 15 min): 132 ± 69
Tissue concentration, Kidney ([1]; 15 min): 259 ± 190
Tissue concentration, Liver ([1]; 15 min): 963 ± 290
Tissue concentration, Spleen ([1]; 15 min): 519 ± 281
Tissue concentration, Stomach ([1]; 15 min): 23180 ± 10170
Tissue concentration, Brain ([1]; 360 min): 31 ± 21
Tissue concentration, Heart ([1]; 360 min): 41 ± 28
Tissue concentration, Kidney ([1]; 360 min): 58 ± 21
Tissue concentration, Liver ([1]; 360 min): 262 ± 175
Tissue concentration, Spleen ([1]; 360 min): 143 ± 51
Tissue concentration, Stomach ([1]; 360 min): 52750 ± 3059
Inhibiting rate, % (SARS-CoV-2; 3 μM): 21.73%
inhibition at 3 µM (SARS-CoV-2; Severe acute respiratory syndrome coronavirus 2, Vero C1008, 48 h, read-out: Inhibiting rate, %, 3 μM): 21%
inhibition at 30 µM (SARS-CoV-2; Severe acute respiratory syndrome coronavirus 2, Vero C1008, 48 h, read-out: Inhibiting rate, %, 30 μM): 98.9%
Heart rate decrease [2]: 2-24 beats/minute
Adverse events, share of subjects ([3]; nausea, diarrhea, dizziness, increased serum transaminases): about 6.2%
Peak concentration ([3]; single oral dose 200 mg): 614.1 ± 342.5 ng/mL
Peak concentration ([3]; single oral dose 400 mg): 904.2 ± 355.6 ng/mL
Peak concentration ([3]; single oral dose 600 mg): 975.1 ± 661.0 ng/mL
AUC0-t ([4]; oral 18 mg/kg): 1956 ± 895 ngh/mL
AUC0-∞ ([4]; oral 18 mg/kg): 2224 ± 1058 ngh/mL
Cmax ([4]; oral 18 mg/kg): 1002 ± 298 ng/mL
Tmax ([4]; oral 18 mg/kg): 16.8 min
t1/2 ([4]; oral 18 mg/kg): 3.6 ± 1.2 h
AUC0-t ([4]; oral 54 mg/kg): 6790 ± 2749 ngh/mL
AUC0-∞ ([4]; oral 54 mg/kg): 7558 ± 2877 ngh/mL
Cmax ([4]; oral 54 mg/kg): 4711 ± 2361 ng/mL
Tmax ([4]; oral 54 mg/kg): 10.8 min
t1/2 ([4]; oral 54 mg/kg): 3.3 ± 0.7 h

CNCc1ccc(-c2cc3cc(F)cc(C(N)=O)c3o2)cc1 [mefuparib hydrochloride]
CC50 at 48 h [5]: ~92 µM
Inhibitory effect on the cells (toxicity) (Vero-E6 cells): no inhibitory effect on the cells

O=C(c1cc(Cc2n[nH]c(=O)c3ccccc23)ccc1F)N1CCN(C(=O)C2CC2)CC1 [Olaparib, olaparib, reference compound]
inhibition at 3.2 µM (SARS-CoV-2; Severe acute respiratory syndrome coronavirus 2, Vero C1008, 48 h, 3.2 μM, different batches, read-out: Inhibiting rate, %): ~12%
CC50 at 48 h [5]: 100 to 300 µM
